The record followed here is patent publication US12139499B2, “Heteroaryl compounds for treating Huntington's disease” (PTC THERAPEUTICS, INC., priority 2018, dated 2024).

Usually IC50 stands for the concentration needed to halve the response being measured.

The assay deals with Endogenous Huntingtin Protein. Briefly: Endogenous Huntingtin Protein Assay (ELISA-based MSD electrochemiluminescence). Type of assay: cell-based. The settings on record: Table 1. Put shortly:
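Huntingtin was captured overnight at 4 °C on plates coated with 1 μg/mL MW1 (polyQ-expanded) or MAB2166 antibody and BSA-blocked. Detection used a rabbit monoclonal and then a SULFO-TAG goat anti-rabbit antibody (0.25 μg/mL, 1 h each, room temperature). Signal was read by electrochemiluminescence.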
In turn, `Cc1cn2cc(-c3cnc4nc(N(C)C5CCNCC5)sc4n3)cc(C)c2n1` [Compound 288, 6-(2,8-dimethylimidazo[1,2-a]pyridin-6-yl)-N-methyl-N-(piperidin-4-yl)[1,3]thiazolo[4,5-b]pyrazin-2-amine] gave an IC50 of 100 to 500 nM.

Regarding `Cn1cc2cc(-c3ccc4nc(C5CCNCC5)sc4c3)cc(F)c2n1` [Compound 83, 6-(7-fluoro-2-methyl-2H-indazol-5-yl)-2-(piperidin-4-yl)-1,3-benzothiazole], the IC50 was not above 100 nM.

`CCc1cc(-c2cc3sc(C4CCNCC4)nc3cn2)cc2cn(C)nc12` [Compound 75, 6-(7-ethyl-2-methyl-2H-indazol-5-yl)-2-(piperidin-4-yl)[1,3]thiazolo[4,5-c]pyridine] yielded a 50% inhibitory concentration (IC50) of 100 to 500 nM.

Compound `Cc1cn2cc(-c3ncc4nc(N(C)C5CC(C)(C)NC(C)(C)C5)sc4n3)cc2c(C)n1` [Compound 265, 5-(1,3-dimethylpyrrolo[1,2-a]pyrazin-7-yl)-N-methyl-N-(2,2,6,6-tetramethylpiperidin-4-yl)[1,3]thiazolo[5,4-d]pyrimidin-2-amine] displayed a concentration for half-maximal inhibition (IC50) not above 100 nM.

For `CN(c1nc2ncc(-c3ccc(-c4cn[nH]c4)cc3O)nc2s1)C1CC(C)(C)NC(C)(C)C1` [Compound 130, 2-{2-[methyl(2,2,6,6-tetramethylpiperidin-4-yl)amino][1,3]thiazolo[4,5-b]pyrazin-6-yl}-5-(1H-pyrazol-4-yl)phenol], the IC50 was not above 100 nM.

The compound `CN(c1nc2nnc(-c3ccc(-c4cn[nH]c4)cc3O)cc2s1)C1CCNCC1` [Compound 282, 2-{6-[methyl(piperidin-4-yl)amino][1,3]thiazolo[4,5-c]pyridazin-3-yl}-5-(1H-pyrazol-4-yl)phenol] yielded a half-maximal inhibitory concentration (IC50) not above 100 nM.

Take `C[C@@H]1C[C@@H](N(C)c2nc3nnc(-c4ccc(-c5cn[nH]c5)cc4O)cc3s2)CCN1C` [Compound 397, 2-(6-{[(2R,4S)-1,2-dimethylpiperidin-4-yl](methyl)amino}[1,3]thiazolo[4,5-c]pyridazin-3-yl)-5-(1H-pyrazol-4-yl)phenol]: the IC50 is not above 100 nM.

In turn, `CN(c1nc2ccc(-c3cc(F)c4nn(C)cc4c3)cc2s1)C1CC(C)(C)NC(C)(C)C1` [Compound 57, 6-(7-fluoro-2-methyl-2H-indazol-5-yl)-N-methyl-N-(2,2,6,6-tetramethylpiperidin-4-yl)-1,3-benzothiazol-2-amine] yielded a concentration for half-maximal inhibition (IC50) not above 100 nM.

`CN(c1nc2nnc(-c3ccc(-c4cn[nH]c4)cc3O)cc2s1)C1CC2(CNC2)C1` [Compound 356, 2-{6-[(2-azaspiro[3.3]heptan-6-yl)(methyl)amino][1,3]thiazolo[4,5-c]pyridazin-3-yl}-5-(1H-pyrazol-4-yl)phenol] returned an IC50 of 100 to 500 nM.

`CN(c1nc2cnc(-c3ccc4nn(C)cc4c3)cc2s1)C1CC(C)(C)NC(C)(C)C1` [Compound 32, N-methyl-6-(2-methyl-2H-indazol-5-yl)-N-(2,2,6,6-tetramethylpiperidin-4-yl)[1,3]thiazolo[4,5-c]pyridin-2-amine] displayed a half-maximal inhibitory concentration (IC50) not above 100 nM.

`Cc1nc2ccc(-c3cc(F)c4nc(C5CCNCC5)sc4c3)cc2o1` [Compound 70, 6-[4-fluoro-2-(piperidin-4-yl)-1,3-benzothiazol-6-yl]-2-methyl-1,3-benzoxazole] displayed a 50% inhibitory concentration (IC50) not above 100 nM.

The compound `Oc1cc(-c2cn[nH]c2)ccc1-c1cc2sc(N3C[C@@H]4CCNC[C@@H]43)nc2nn1` [Compound 389, 2-{6-[(1R,6S)-3,8-diazabicyclo[4.2.0]octan-8-yl][1,3]thiazolo[4,5-c]pyridazin-3-yl}-5-(1H-pyrazol-4-yl)phenol] returned an IC50 not above 100 nM.

In turn, `Cn1cc2nc(-c3cc(F)c4nc(C5CCNCC5)sc4c3)ccc2n1` [Compound 79, 5-[4-fluoro-2-(piperidin-4-yl)-1,3-benzothiazol-6-yl]-2-methyl-2H-pyrazolo[4,3-b]pyridine] displayed an IC50 not above 100 nM.

In turn, `Cc1cn2nc(-c3cc(F)c4nc(C5CCNCC5)sc4c3)cc(C(N)=O)c2n1` [Compound 224, 6-[4-fluoro-2-(piperidin-4-yl)-1,3-benzothiazol-6-yl]-2-methylimidazo[1,2-b]pyridazine-8-carboxamide] showed an IC50 not above 100 nM.

On to `CN(c1nc2nnc(-c3ccc(-c4cn[nH]c4)cc3O)cc2s1)[C@H]1CCCNC1` [Compound 349, 2-(6-{methyl[(3S)-piperidin-3-yl]amino}[1,3]thiazolo[4,5-c]pyridazin-3-yl)-5-(1H-pyrazol-4-yl)phenol], for which the IC50 is not above 100 nM.

Turning to `CN(c1nc2ccc(-c3cc(C#N)c4nn(C)cc4c3)nc2s1)C1CC2(C)CCC(C)(C1)N2` [Compound 293, 5-(2-{[(1R,3s,5S)-1,5-dimethyl-8-azabicyclo[3.2.1]octan-3-yl](methyl)amino}[1,3]thiazolo[5,4-b]pyridin-5-yl)-2-methyl-2H-indazole-7-carbonitrile], the IC50 was not above 100 nM.

Compound `Cc1cn2cc(-c3cc4sc(N(C)C5CC(C)(C)NC(C)(C)C5)nc4cn3)cc2c(C)n1` [Compound 297, 6-(1,3-dimethylpyrrolo[1,2-a]pyrazin-7-yl)-N-methyl-N-(2,2,6,6-tetramethylpiperidin-4-yl)[1,3]thiazolo[4,5-c]pyridin-2-amine] displayed an IC50 not above 100 nM.

Compound `CCN(c1nc2cnc(-c3cc(F)c4nc(C)cn4c3)nc2s1)C1CC(C)(C)NC(C)(C)C1` [Compound 243, N-ethyl-5-(8-fluoro-2-methylimidazo[1,2-a]pyridin-6-yl)-N-(2,2,6,6-tetramethylpiperidin-4-yl)[1,3]thiazolo[5,4-d]pyrimidin-2-amine] yielded an IC50 of 100 to 500 nM.

`CN1CCC(N(C)c2nc3nnc(-c4ccc(-c5cn[nH]c5)cc4O)cc3s2)CC1` [Compound 283, 2-{6-[methyl(1-methylpiperidin-4-yl)amino][1,3]thiazolo[4,5-c]pyridazin-3-yl}-5-(1H-pyrazol-4-yl)phenol] showed a 50% inhibitory concentration (IC50) of 500 to 1000 nM.

Compound `Cn1cc2cc(-c3ccc4nc(C5CCNCC5)sc4c3)cc(C#N)c2n1` [Compound 84, 2-methyl-5-[2-(piperidin-4-yl)-1,3-benzothiazol-6-yl]-2H-indazole-7-carbonitrile] gave a concentration for half-maximal inhibition (IC50) not above 100 nM.

The compound `CN(c1nc2c(F)cc(-c3cc(C#N)c4nn(C)cc4c3)cc2s1)C1CC(C)(C)NC(C)(C)C1` [Compound 91, 5-{4-fluoro-2-[methyl(2,2,6,6-tetramethylpiperidin-4-yl)amino]-1,3-benzothiazol-6-yl}-2-methyl-2H-indazole-7-carbonitrile] came in with a 50% inhibitory concentration (IC50) not above 100 nM.

Regarding `Cc1cn2nc(-c3cc(F)c4nc(N(C)C5CC(C)(C)NC(C)(C)C5)sc4c3)ccc2n1` [Compound 37, 4-fluoro-N-methyl-6-(2-methylimidazo[1,2-b]pyridazin-6-yl)-N-(2,2,6,6-tetramethylpiperidin-4-yl)-1,3-benzothiazol-2-amine], the half-inhibitory concentration (IC50) was not above 100 nM.

`CN(c1nc2ccc(-c3cc(C4CC4)c4nn(C)cc4c3)cc2s1)C1CC(C)(C)NC(C)(C)C1` [Compound 80, 6-(7-cyclopropyl-2-methyl-2H-indazol-5-yl)-N-methyl-N-(2,2,6,6-tetramethylpiperidin-4-yl)-1,3-benzothiazol-2-amine] gave an IC50 of 1000 to 3000 nM.

Turning to `Cn1cc2cc(-c3cc4sc(C5CCNCC5)nc4cn3)cc(C(F)(F)F)c2n1` [Compound 60, 6-[2-methyl-7-(trifluoromethyl)-2H-indazol-5-yl]-2-(piperidin-4-yl)[1,3]thiazolo[4,5-c]pyridine], the IC50 lay within 100 to 500 nM.

In the case of `Cn1cc2cc(-c3cc4sc(NC5CC(C)(C)NC(C)(C)C5)nc4cn3)cc(C#N)c2n1` [Compound 233, 2-methyl-5-{2-[(2,2,6,6-tetramethylpiperidin-4-yl)amino][1,3]thiazolo[4,5-c]pyridin-6-yl}-2H-indazole-7-carbonitrile], the IC50 is not above 100 nM.

`CC1C=C(c2nc3ccc(-c4ccc5nn(C)cc5c4)cc3s2)CCN1` (stereo not drawn) [Compound 67, 6-(2-methyl-2H-indazol-5-yl)-2-(6-methyl-1,2,3,6-tetrahydropyridin-4-yl)-1,3-benzothiazole] gave an IC50 of 1000 to 3000 nM.

As for `Cc1cn2cc(-c3cc4sc(NC5CC6CCC(C5)N6)nc4cn3)cc(F)c2n1` (stereo not drawn) [Compound 212, N-[(3-exo)-8-azabicyclo[3.2.1]oct-3-yl]-6-(8-fluoro-2-methylimidazo[1,2-a]pyridin-6-yl)[1,3]thiazolo[4,5-c]pyridin-2-amine], the half-maximal inhibitory concentration (IC50) is not above 100 nM.

Turning to `Cc1cn2nc(-c3cc(F)c4nc(N5CCCNCC5)sc4c3)cc(C)c2n1` [Compound 121, 6-[2-(1,4-diazepan-1-yl)-4-fluoro-1,3-benzothiazol-6-yl]-2,8-dimethylimidazo[1,2-b]pyridazine], the half-inhibitory concentration (IC50) was not above 100 nM.

`Cc1cn2cc(-c3cnc4nc(N5CCNCC5)sc4n3)cc(C#N)c2n1` [Compound 173, 2-methyl-6-[2-(piperazin-1-yl)[1,3]thiazolo[4,5-b]pyrazin-6-yl]imidazo[1,2-a]pyridine-8-carbonitrile] yielded a half-maximal inhibitory concentration (IC50) of 1000 to 3000 nM.

Compound `Cc1cn2nc(-c3cc(F)c4nc(N(C)[C@@H]5CCN[C@@H](C)C5)sc4c3)ccc2n1` [Compound 259, 4-fluoro-N-methyl-6-(2-methylimidazo[1,2-b]pyridazin-6-yl)-N-[(2S,4R)-2-methylpiperidin-4-yl]-1,3-benzothiazol-2-amine] displayed a concentration for half-maximal inhibition (IC50) not above 100 nM.

`CN(c1nc2ccc(-c3ccc4nn(C)cc4c3)cc2s1)C1CCNC(C)(C)C1` (stereo not drawn) [Compound 155, N-(2,2-dimethylpiperidin-4-yl)-N-methyl-6-(2-methyl-2H-indazol-5-yl)-1,3-benzothiazol-2-amine] gave an IC50 of 100 to 500 nM.

As for `CC[C@]12CC[C@](CC)(CC(N(C)c3nc4cnc(-c5cc(F)c6nc(C)cn6c5)nc4s3)C1)N2` (stereo partly drawn) [Compound 304, N-[(1R,3r,5S)-1,5-diethyl-8-azabicyclo[3.2.1]octan-3-yl]-5-(8-fluoro-2-methylimidazo[1,2-a]pyridin-6-yl)-N-methyl[1,3]thiazolo[5,4-d]pyrimidin-2-amine], the IC50 was 100 to 500 nM.

`CN(c1nc2ccc(-c3cc(C#N)c4nn(C)cc4c3)nc2s1)C1CC2CCCC(C1)N2` (stereo not drawn) [Compound 281, 5-{2-[(3-exo)-9-azabicyclo[3.3.1]non-3-yl(methyl)amino][1,3]thiazolo[5,4-b]pyridin-5-yl}-2-methyl-2H-indazole-7-carbonitrile] showed an IC50 not above 100 nM.
